Reference: the supplement of paper PMC8882468

Tested on: HCI-024 (organoid from a breast cancer xenograft)
Assay: CTG-3D luminescence at 96 h relative to day-0 seeding control (ratio to day 0); higher = more growth / less cytotoxicity; PDxO 3D drug screen (set 2), 96 h, CTG-3D normalised to day-0 seeding control.
Details: 625 fM; days in culture: 254

Point of comparison: `CCOc1ccn(-c2ccc(F)cc2)c(=O)c1C(=O)Nc1ccc(Oc2ccnc(N)c2Cl)c(F)c1` [ASLAN002], “CTG-3D luminescence at 96 h” value 2.45. Against it:
- CC(C)n1nc(-c2ccc3oc(N)nc3c2)c2c(N)ncnc21 [sapanisertib] — lower, 1.6
- C[C@@H](Nc1cc(F)cc(F)c1)c1cc(C(=O)N(C)C)cc2c(=O)cc(N3CCOCC3)oc12 [AZD-8186] — lower, 1.01
- CC(=O)c1c(C)c2cnc(Nc3ccc(N4CCNCC4)cn3)nc2n(C2CCCC2)c1=O [palbociclib] — higher, 2.68
- Cc1c(CN2CCN(C(=O)[C@H](C)O)CC2)sc2c(N3CCOCC3)nc(-c3cnc(N)nc3)nc12 [apitolisib] — lower, 1.94
- CS(=O)(=O)CCNCc1ccc(-c2ccc3ncnc(Nc4ccc(OCc5cccc(F)c5)c(Cl)c4)c3c2)o1 [lapatinib] — lower, 1.76
- Nc1cc(C(F)(F)F)c(-c2cc(N3CCOCC3)nc(N3CCOCC3)n2)cn1 [buparlisib] — lower, 2.39

Tested on: HCI-008 (organoid from a HER2-enriched breast cancer xenograft)
Assay: as above
Details: 12.5 pM; days in culture: 325

Point of comparison: `Nc1cc(C(F)(F)F)c(-c2cc(N3CCOCC3)nc(N3CCOCC3)n2)cn1` [buparlisib], “CTG-3D luminescence at 96 h” value 0.757. Against it:
- CC(C)n1nc(-c2ccc3oc(N)nc3c2)c2c(N)ncnc21 [sapanisertib] — higher, 1.51
- C[C@@H](Nc1cc(F)cc(F)c1)c1cc(C(=O)N(C)C)cc2c(=O)cc(N3CCOCC3)oc12 [AZD-8186] — higher, 1.16
- CC(=O)c1c(C)c2cnc(Nc3ccc(N4CCNCC4)cn3)nc2n(C2CCCC2)c1=O [palbociclib] — higher, 1.14
- Cc1c(CN2CCN(C(=O)[C@H](C)O)CC2)sc2c(N3CCOCC3)nc(-c3cnc(N)nc3)nc12 [apitolisib] — higher, 1.41
- CS(=O)(=O)CCNCc1ccc(-c2ccc3ncnc(Nc4ccc(OCc5cccc(F)c5)c(Cl)c4)c3c2)o1 [lapatinib] — higher, 1.68
- CCOc1ccn(-c2ccc(F)cc2)c(=O)c1C(=O)Nc1ccc(Oc2ccnc(N)c2Cl)c(F)c1 [ASLAN002] — higher, 1.03

Same assay, conditions: 12.5 pM; days in culture: 340

Point of comparison: `CS(=O)(=O)CCNCc1ccc(-c2ccc3ncnc(Nc4ccc(OCc5cccc(F)c5)c(Cl)c4)c3c2)o1` [lapatinib], “CTG-3D luminescence at 96 h” value 1.22. Against it:
- CC(C)n1nc(-c2ccc3oc(N)nc3c2)c2c(N)ncnc21 [sapanisertib] — lower, 0.668
- C[C@@H](Nc1cc(F)cc(F)c1)c1cc(C(=O)N(C)C)cc2c(=O)cc(N3CCOCC3)oc12 [AZD-8186] — higher, 1.72
- CC(=O)c1c(C)c2cnc(Nc3ccc(N4CCNCC4)cn3)nc2n(C2CCCC2)c1=O [palbociclib] — lower, 0.654
- Cc1c(CN2CCN(C(=O)[C@H](C)O)CC2)sc2c(N3CCOCC3)nc(-c3cnc(N)nc3)nc12 [apitolisib] — higher, 1.4
- CCOc1ccn(-c2ccc(F)cc2)c(=O)c1C(=O)Nc1ccc(Oc2ccnc(N)c2Cl)c(F)c1 [ASLAN002] — lower, 0.543
- Nc1cc(C(F)(F)F)c(-c2cc(N3CCOCC3)nc(N3CCOCC3)n2)cn1 [buparlisib] — lower, 0.632

Same assay, conditions: 12.5 pM; days in culture: 354

Point of comparison: `CCOc1ccn(-c2ccc(F)cc2)c(=O)c1C(=O)Nc1ccc(Oc2ccnc(N)c2Cl)c(F)c1` [ASLAN002], “CTG-3D luminescence at 96 h” value 1.38. Against it:
- CC(C)n1nc(-c2ccc3oc(N)nc3c2)c2c(N)ncnc21 [sapanisertib] — lower, 1.18
- C[C@@H](Nc1cc(F)cc(F)c1)c1cc(C(=O)N(C)C)cc2c(=O)cc(N3CCOCC3)oc12 [AZD-8186] — lower, 1.26
- CC(=O)c1c(C)c2cnc(Nc3ccc(N4CCNCC4)cn3)nc2n(C2CCCC2)c1=O [palbociclib] — lower, 1.29
- Cc1c(CN2CCN(C(=O)[C@H](C)O)CC2)sc2c(N3CCOCC3)nc(-c3cnc(N)nc3)nc12 [apitolisib] — higher, 1.55
- CS(=O)(=O)CCNCc1ccc(-c2ccc3ncnc(Nc4ccc(OCc5cccc(F)c5)c(Cl)c4)c3c2)o1 [lapatinib] — higher, 1.62
- Nc1cc(C(F)(F)F)c(-c2cc(N3CCOCC3)nc(N3CCOCC3)n2)cn1 [buparlisib] — lower, 0.796

Same assay, conditions: 12.5 pM; days in culture: 382

Point of comparison: `CCOc1ccn(-c2ccc(F)cc2)c(=O)c1C(=O)Nc1ccc(Oc2ccnc(N)c2Cl)c(F)c1` [ASLAN002], “CTG-3D luminescence at 96 h” value 1.45. Against it:
- CC(C)n1nc(-c2ccc3oc(N)nc3c2)c2c(N)ncnc21 [sapanisertib] — higher, 1.81
- C[C@@H](Nc1cc(F)cc(F)c1)c1cc(C(=O)N(C)C)cc2c(=O)cc(N3CCOCC3)oc12 [AZD-8186] — higher, 1.77
- CC(=O)c1c(C)c2cnc(Nc3ccc(N4CCNCC4)cn3)nc2n(C2CCCC2)c1=O [palbociclib] — higher, 1.83
- Cc1c(CN2CCN(C(=O)[C@H](C)O)CC2)sc2c(N3CCOCC3)nc(-c3cnc(N)nc3)nc12 [apitolisib] — higher, 1.87
- CS(=O)(=O)CCNCc1ccc(-c2ccc3ncnc(Nc4ccc(OCc5cccc(F)c5)c(Cl)c4)c3c2)o1 [lapatinib] — higher, 1.61
- Nc1cc(C(F)(F)F)c(-c2cc(N3CCOCC3)nc(N3CCOCC3)n2)cn1 [buparlisib] — higher, 1.52

Same assay, conditions: 0.00025 µM; days in culture: 325

Point of comparison: `CC(=O)c1c(C)c2cnc(Nc3ccc(N4CCNCC4)cn3)nc2n(C2CCCC2)c1=O` [palbociclib], “CTG-3D luminescence at 96 h” value 1.96. Against it:
- CC(C)n1nc(-c2ccc3oc(N)nc3c2)c2c(N)ncnc21 [sapanisertib] — the same, 1.96
- C[C@@H](Nc1cc(F)cc(F)c1)c1cc(C(=O)N(C)C)cc2c(=O)cc(N3CCOCC3)oc12 [AZD-8186] — higher, 2.3
- Cc1c(CN2CCN(C(=O)[C@H](C)O)CC2)sc2c(N3CCOCC3)nc(-c3cnc(N)nc3)nc12 [apitolisib] — higher, 2
- CS(=O)(=O)CCNCc1ccc(-c2ccc3ncnc(Nc4ccc(OCc5cccc(F)c5)c(Cl)c4)c3c2)o1 [lapatinib] — lower, 1.81
- CCOc1ccn(-c2ccc(F)cc2)c(=O)c1C(=O)Nc1ccc(Oc2ccnc(N)c2Cl)c(F)c1 [ASLAN002] — higher, 2.2
- Nc1cc(C(F)(F)F)c(-c2cc(N3CCOCC3)nc(N3CCOCC3)n2)cn1 [buparlisib] — higher, 2.89

Same assay, conditions: 0.00025 µM; days in culture: 340

Point of comparison: `CC(C)n1nc(-c2ccc3oc(N)nc3c2)c2c(N)ncnc21` [sapanisertib], “CTG-3D luminescence at 96 h” value 2.32. Against it:
- C[C@@H](Nc1cc(F)cc(F)c1)c1cc(C(=O)N(C)C)cc2c(=O)cc(N3CCOCC3)oc12 [AZD-8186] — higher, 2.42
- CC(=O)c1c(C)c2cnc(Nc3ccc(N4CCNCC4)cn3)nc2n(C2CCCC2)c1=O [palbociclib] — higher, 3.19
- Cc1c(CN2CCN(C(=O)[C@H](C)O)CC2)sc2c(N3CCOCC3)nc(-c3cnc(N)nc3)nc12 [apitolisib] — lower, 1.81
- CS(=O)(=O)CCNCc1ccc(-c2ccc3ncnc(Nc4ccc(OCc5cccc(F)c5)c(Cl)c4)c3c2)o1 [lapatinib] — lower, 2.1
- CCOc1ccn(-c2ccc(F)cc2)c(=O)c1C(=O)Nc1ccc(Oc2ccnc(N)c2Cl)c(F)c1 [ASLAN002] — lower, 2.27
- Nc1cc(C(F)(F)F)c(-c2cc(N3CCOCC3)nc(N3CCOCC3)n2)cn1 [buparlisib] — higher, 2.38

Same assay, conditions: 0.00025 µM; days in culture: 354

Point of comparison: `CC(C)n1nc(-c2ccc3oc(N)nc3c2)c2c(N)ncnc21` [sapanisertib], “CTG-3D luminescence at 96 h” value 1.2. Against it:
- C[C@@H](Nc1cc(F)cc(F)c1)c1cc(C(=O)N(C)C)cc2c(=O)cc(N3CCOCC3)oc12 [AZD-8186] — higher, 1.28
- CC(=O)c1c(C)c2cnc(Nc3ccc(N4CCNCC4)cn3)nc2n(C2CCCC2)c1=O [palbociclib] — higher, 1.41
- Cc1c(CN2CCN(C(=O)[C@H](C)O)CC2)sc2c(N3CCOCC3)nc(-c3cnc(N)nc3)nc12 [apitolisib] — lower, 1.16
- CS(=O)(=O)CCNCc1ccc(-c2ccc3ncnc(Nc4ccc(OCc5cccc(F)c5)c(Cl)c4)c3c2)o1 [lapatinib] — lower, 1.04
- CCOc1ccn(-c2ccc(F)cc2)c(=O)c1C(=O)Nc1ccc(Oc2ccnc(N)c2Cl)c(F)c1 [ASLAN002] — higher, 1.4
- Nc1cc(C(F)(F)F)c(-c2cc(N3CCOCC3)nc(N3CCOCC3)n2)cn1 [buparlisib] — lower, 1.19
